US10028942B2 (priority 2013, dated 2018)

Molecular target: T1, DLK (Homo sapiens, UniProt Q12852)
T1 sequence (Q12852 1-520): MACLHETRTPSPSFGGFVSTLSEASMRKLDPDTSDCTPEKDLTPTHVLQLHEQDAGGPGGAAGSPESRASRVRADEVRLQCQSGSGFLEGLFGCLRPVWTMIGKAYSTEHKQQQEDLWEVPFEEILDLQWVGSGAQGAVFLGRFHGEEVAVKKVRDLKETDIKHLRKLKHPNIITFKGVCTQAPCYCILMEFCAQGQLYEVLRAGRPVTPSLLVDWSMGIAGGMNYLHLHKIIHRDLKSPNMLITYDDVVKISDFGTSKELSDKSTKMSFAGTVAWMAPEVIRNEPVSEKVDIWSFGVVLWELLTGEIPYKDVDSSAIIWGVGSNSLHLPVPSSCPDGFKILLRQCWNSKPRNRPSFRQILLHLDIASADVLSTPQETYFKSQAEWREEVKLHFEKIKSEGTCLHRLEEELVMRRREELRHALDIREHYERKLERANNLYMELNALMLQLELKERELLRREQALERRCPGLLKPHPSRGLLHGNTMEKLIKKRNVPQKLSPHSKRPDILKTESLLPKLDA
Conditions: read-out: DLK (Ki) μM; TR-FRET; 5 nM GST-tagged DLK (catalytic domain aa 1-520), 40 nM HIS-MKK4 K131M substrate, 30 μM ATP, 60 minutes

In order of falling Ki:
1. CC(C)n1nc(-c2cnc(N)c3cn[nH]c23)cc1[C@H]1[C@@H]2CN(CC(F)(F)F)C[C@@H]21 [Compound 114, 7-(1-isopropyl-5-((1R,5S,6r)-3-(2,2,2-trifluoroethyl)-3-azabicyclo[3.1.0]hexan-6-yl)-1H-pyrazol-3-yl)-1H-py-razolo[4,3-c]pyridin-4-amine]  0.96 µM
2. CC(C)n1nc(-c2cnc(N)c(C(F)(F)F)c2)cc1C(C)(C)C#N [Compound 4, 2-(3-(6-amino-5-(trifluoromethyl)pyridin-3-yl)-1-isopropyl-1H-pyrazol-5-yl)-2-methylpropanenitrile]  0.78 µM
3. CC(C)n1nc(-c2cnc3[nH]cc(F)c3c2)cc1C1CN(C2COC2)C1 [Compound 58, 3-fluoro-5-(1-isopropyl-5-(1-(oxetan-3-yl)azetidin-3-yl)-1H-pyrazol-3-yl)-1H-pyrrolo[2,3-b]pyridine]  0.64 µM
4. Nc1ncc(-c2cc(C3CCOCC3)n(C3CC(F)(F)C3)n2)cc1Cl [Compound 39, 3-chloro-5-(1-(3,3-difluorocyclobut-yl)-5-(tetrahydro-2H-pyran-4-yl)-1H-pyrazol-3-yl)pyridin-2-amine]  0.46 µM
5. Nc1ncc(-c2cc(C3CCN(C4COC4)CC3)n(C3CCCC3)n2)cc1Cl [Compound 71, 3-chloro-5-(1-cyclopentyl-5-(1-(oxetan-3-yl)piperidin-4-yl)-1H-pyrazol-3-yl)pyridin-2-amine]  0.27 µM
6. COc1cc(-c2cc(C3CCN(C4COC4)CC3)n(C3CCCC3)n2)cnc1N [Compound 88, 5-(1-cyclopentyl-5-(1-(oxetan-3-yl)piperidin-4-yl)-1H-pyrazol-3-yl)-3-methoxypyridin-2-amine]  0.26 µM
7. N#Cc1cc(-c2cc(C3CCN(C4COC4)CC3)n(C3CCCC3)n2)cnc1N [Compound 93, 2-amino-5-(1-cyclopentyl-5-(1-(oxetan-an-3-yl)piperidin-4-yl)-1H-pyrazol-3-yl)nicotinonitrile]  0.17 µM
8. COc1cc(-c2cc(C3CCN(C4COC4)CC3)n(C(C)C)n2)cnc1N [Compound 89, 5-(1-isopropyl-5-(1-(oxetan-3-yl)pipe-ridin-4-yl)-1H-pyrazol-3-yl)-3-meth-oxypyridin-2-amine]  0.14 µM
9. CC(C)n1nc(-c2cnc(N)c(OC(F)F)c2)cc1C(C)(C)O [Compound 3, 2-(3-(6-amino-5-(difluoromethoxy)pyridin-3-yl)-1-isopropyl-1H-pyrazol-5-yl)propan-2-ol]  0.14 µM
10. Nc1ncc(-c2cc(C3CCN(C4COC4)CC3)n(C3CCCC3)n2)cc1C(F)(F)F [Compound 81, 5-(1-cyclopentyl-5-(1-(oxetan-3-yl)piperidin-4-yl)-1H-pyrazol-3-yl)-3-(trifluoromethyl)pyridin-2-amine]  0.084 µM
11. CC(C)n1nc(-c2cnc(N)c(OC(F)F)c2)cc1C1CCN(C2COC2)CC1 [Compound 99, 3-(difluoromethoxy)-5-(1-isopropyl-5-(1-(oxetan-3-yl)piperidin-4-yl)-1H-pyrazol-3-yl)pyridin-2-amine]  0.069 µM
12. N#Cc1cc(-c2cc([C@H]3[C@@H]4CN(CC(F)(F)F)C[C@@H]43)n(CC3CC3)n2)cnc1N [Compound 113, 2-amino-5-(1-(cyclopropylmethyl)-5-((1R,5S,6r)-3-(2,2,2-trifluoroethyl)-3-azabicyclo[3.1.0]hexan-6-yl)-1H-pyrazol-3-yl)nicotinonitrile]  0.064 µM
13. CC(C)n1nc(-c2cnc(N)c(C(F)(F)F)c2)cc1C1CCN(CC#N)CC1 [Compound 52, 2-(4-(3-(6-amino-5-(trifluoromethyl)pyridin-3-yl)-1-isopropyl-1H-pyrazol-5-yl)piperidin-1-yl)acetonitrile]  0.056 µM
14. FC(F)(F)c1c[nH]c2ncc(-c3cc(C4CCOC4)n(C4CCOC4)n3)cc12 (stereo not drawn) [Compound 15, 5-(1,5-bis(tetrahydrofuran-3-yl)-1H-pyrazol-3-yl)-3-(trifluoromethyl)-1H-pyrrolo[2,3-b]pyridine]  0.035 µM
15. COCCN1C[C@@H]2[C@H](C1)[C@H]2c1cc(-c2cnc(N)c(C(F)(F)F)c2)nn1CC1CCC1 [Compound 124, 5-(1-(cyclobutylmethyl)-5-((1R,5S,6r)-3-(2-methoxyethyl)-3-azabicyclo [3.1.0]hexan-6-yl)-1H-pyrazol-3-yl)-3-(trifluoromethyl)pyridin-2-amine]  0.027 µM
16. COCCN1C[C@@H]2[C@H](C1)[C@H]2c1cc(-c2cnc(N)c(Cl)c2)nn1CC1CC1 [Compound 123, 3-chloro-5-(1-(cyclopropylmethyl)-5-((1R,5S,6r)-3-(2-methoxyethyl)-3-aza-bicyclo[3.1.0]hexan-6-yl)-1H-pyra-zol-3-yl)pyridin-2-amine]  0.027 µM
17. CC(=O)N1CC(c2cc(-c3cnc4[nH]cc(C)c4c3)nn2C(C)C)C1 [Compound 12, 1-(3-(1-isopropyl-3-(3-methyl-1H-pyrrolo[2,3-b]pyridin-5-yl)-1H-pyrazol-5-yl)azetidin-1-yl)ethanone]  0.026 µM
18. CC(C)n1nc(-c2cnc(N)c(C3CC3)c2)cc1[C@H]1[C@@H]2CN(C3COC3)C[C@@H]21 [Compound 142, 3-cyclopropyl-5-(1-isopropyl-5-((1R,5S,6r)-3-(oxetan-3-yl)-3-azabicyclo [3.1.0]hexan-6-yl)-1H-pyrazol-3-yl) pyridin-2-amine]  0.022 µM
19. Nc1ncc(-c2cc([C@H]3[C@@H]4CN(C5COC5)C[C@@H]43)n(CC3CC3)n2)cc1C1CC1 [Compound 161, 3-cyclopropyl-5-(1-(cyclopropylmeth-yl)-5-((1R,5S,6r)-3-(oxetan-3-yl)-3-azabicyclo[3.1.0]hexan-6-yl)-1H-pyrazol-3-yl)pyridin-2-amine]  0.021 µM
20. FC(F)(F)c1c[nH]c2ncc(-c3cc(C4CN(C5COC5)C4)n(C4CCOC4)n3)cc12 (stereo not drawn) [Compound 55, 5-(5-(1-(oxetan-3-yl)azetidin-3-yl)-1-(tetrahydrofuran-3-yl)-1H-pyrazol-3-yl)-3-(trifluoromethyl)-1H-pyrrolo[2,3-b]pyridine]  0.019 µM
21. FC1(F)CCC(n2nc(-c3cnc4[nH]cc(C(F)(F)F)c4c3)cc2C2CN(C3COC3)C2)C1 (stereo not drawn) [Compound 56, 5-(1-(3,3-difluorocyclopentyl)-5-(1-(oxetan-3-yl)azetidin-3-yl)-1H-pyrazol-3-yl)-3-(trifluoromethyl)-1H-pyrrolo[2,3-b]pyridine]  0.013 µM
22. Nc1ncc(-c2cc([C@H]3[C@@H]4CN(C5COC5)C[C@@H]43)n(C3CCCC3)n2)cc1C(F)(F)F [Compound 135, 5-(1-cyclopentyl-5-((1R,5S,6r)-3-(oxetan-3-yl)-3-azabicyclo[3.1.0]hexan-6-yl)-1H-pyrazol-3-yl)-3-(trifluoromethyl)pyridin-2-amine]  0.0089 µM
23. COCCN1C[C@@H]2[C@H](C1)[C@H]2c1cc(-c2cnc(N)c(C(F)(F)F)c2)nn1CC1CC1 [Compound 122, 5-(1-(cyclopropylmethyl)-5-((1R,5S, 6r)-3-(2-methoxyethyl)-3-azabicyclo [3.1.0]hexan-6-yl)-1H-pyrazol-3-yl)-3-(trifluoromethyl)pyridin-2-amine]  0.0079 µM
24. Nc1ncc(-c2cc([C@H]3[C@@H]4CN(C5COC5)C[C@@H]43)n(C3CCCC3)n2)cc1OC(F)F [Compound 137, 5-(1-cyclopentyl-5-((1R,5S,6r)-3-(oxe-tan-3-yl)-3-azabicyclo[3.1.0]hexan-6-yl)-1H-pyrazol-3-yl)-3-(difluoro-methoxy)pyridin-2-amine]  0.0074 µM
25. CC(=O)N1CC(c2cc(-c3cnc4[nH]cc(C(F)(F)F)c4c3)nn2C(C)C)C1 [Compound 10, 1-(3-(1-isopropyl-3-(3-(trifluorometh-yl)-1H-pyrrolo[2,3-b]pyridin-5-yl)-1H-pyrazol-5-yl)azetidin-1-yl)ethan-one]  0.0064 µM
26. CC(=O)N1C[C@@H]2[C@H](C1)[C@H]2c1cc(-c2cnc(N)c(C(F)(F)F)c2)nn1C(C)C [Compound 115, 1-((1R,5S,6r)-6-(3-(6-amino-5-(trifluoro-methyl)pyridin-3-yl)-1-isopropyl-1H-pyrazol-5-yl)-3-azabicyclo[3.1.0]hexan-3-yl)ethanone]  0.0056 µM
27. CC(C)n1nc(-c2cnc(N)c(OC(F)(F)F)c2)cc1[C@H]1[C@@H]2CN(C3COC3)C[C@@H]21 [Compound 165, 5-(1-isopropyl-5-((1R,5S,6r)-3-(oxe-tan-3-yl)-3-azabicyclo[3.1.0]hexan-6-yl)-1H-pyrazol-3-yl)-3-(trifluorometh-oxy)pyridin-2-amine]  0.0019 µM
28. Nc1ncc(-c2cc([C@H]3[C@@H]4CN(C5COC5)C[C@@H]43)n(CC(F)(F)F)n2)cc1C(F)(F)F [Compound 174, 5-(5-((1R,5S,6r)-3-(oxetan-3-yl)-3-azabicyclo[3.1.0]hexan-6-yl)-1-(2,2,2-trifluoroethyl)-1H-pyrazol-3-yl)-3-(trifluoromethyl)pyridin-2-amine]  0.0016 µM
29. COCC(C)N1C[C@@H]2[C@H](C1)[C@H]2c1cc(-c2cnc(N)c(C(F)(F)F)c2)nn1C(C)C (stereo partly drawn) [Compound 129, 5-(1-isopropyl-5-((1R,5S,6r)-3-(1-meth-oxypropan-2-yl)-3-azabicyclo[3.1.0]hexan-6-yl)-1H-pyrazol-3-yl)-3-(trifluoromethyl)pyridin-2-amine]  0.0013 µM
30. CC(C)n1nc(-c2cnc3[nH]cc(C(F)(F)F)c3c2)cc1[C@H]1[C@@H]2CN(C3COC3)C[C@@H]21 [Compound 133, 5-(1-isopropyl-5-((1R,5S,6r)-3-(oxe-tan-3-yl)-3-azabicyclo[3.1.0]hexan-6-yl)-1H-pyrazol-3-yl)-3-(trifluorometh-yl)-1H-pyrrolo[2,3-b]pyridine]  0.0004 µM
